test system: T cell clone PD6-4.3; assay: Proliferation of insulin-specific NOD T cell clone; assay type: cell-based, mouse; conditions: 50 μg/ml peptide, 72 hours
Method: (§1) Insulin specific NOD T cell lines were established by culturing lymphocytes isolated from islet-infiltrating populations by in vitro stimulation with either porcine insulin at 25 μg/ml and irradiated NOD islet cells in the presence of irradiated NOD spleen cells as antigen presenting cells and cytokines. To obtain the infiltrating lymphocytes the following procedures were performed (see WeLimann et al., Eur. J. Immunol. 24:1853, 1994): the pancreas from the NOD mouse was digested with collatenase and individual islets were isolated manually. The infiltrating lymphocytes were then obtained by mild trypsin digestion of the islets. The insulin specific T cell lines or clones were propagated by serial stimulation in the presence of NOD spleen cells, porcine insulin and lymphokines. Clones were obtained by limiting dilution of the B chain (9-23) specific T cell lines in the presence of the antigen presenting cells and porcine insulin at 25 μg/ml. Wells with a growing population of cells following limiting dilution were expanded in appropriate medium, and after one cycle of growth were tested for reactivity to the B chain (9-23) peptide of insulin by evaluating the proliferative response.
(§2) Insulin B chain (9-23) (SEQ ID NO:2) specific mouse (NOD) T cell clones were isolated from infiltrated islets as described in Example 2. Peptide analogues with single alanine substitutions were prepared as described in Example 1. The effect of each analogue on T cell prolircration was then evaluated using an assay performed in 96-well flat bottom microtiter plates (see Daniel et al., Eur. J. Immunol. 25 :1056, 1995). Briefly 25,000 T cell clones along with 1 million irradiated NOD spleen cells were cultured in the presence of 50 μg/ml of insulin B chain 9-23 peptide or any of the alanine substituted peptides listed below in triplicate sets. The plates were incubated for a total of 72 hours in 7% carbon dioxide atmosphere with a pulse of 1 μCi/well of tritiated thymidine for the last 6-8 hours of culture. Cells were harvested on a glass fiber filter and the associated radioactivity was counted in a liquid scintillation counter. Results are expressed as mean counts per minute of triplicate wells.

Row | Substance | Response (cpm)
1 | Modified Position 10: insulin B chain (9-23) peptide analogue with native residue H at position 10 substituted with alanine | 12507
2 | Modified Position 11: insulin B chain (9-23) peptide analogue with native residue L at position 11 substituted with alanine | 14148
3 | Modified Position 19: insulin B chain (9-23) peptide analogue with native residue C at position 19 substituted with alanine | 7678
4 | Modified Position 20: insulin B chain (9-23) peptide analogue with native residue G at position 20 substituted with alanine | 2440
5 | Modified Position 21: insulin B chain (9-23) peptide analogue with native residue E at position 21 substituted with alanine | 91
6 | Modified Position 22: insulin B chain (9-23) peptide analogue with native residue R at position 22 substituted with alanine | 6555
7 | Modified Position 23: insulin B chain (9-23) peptide analogue with native residue G at position 23 substituted with alanine | 14304

test system: T cell clone PD12-4.4; assay: Proliferation of insulin-specific NOD T cell clone; assay type: cell-based, mouse; conditions: 50 μg/ml peptide, 72 hours
Method: as §1, §2

Row | Substance | Response (cpm)
8 | Modified Position 10: insulin B chain (9-23) peptide analogue with native residue H at position 10 substituted with alanine | 823
9 | Modified Position 11: insulin B chain (9-23) peptide analogue with native residue L at position 11 substituted with alanine | 474
10 | Modified Position 19: insulin B chain (9-23) peptide analogue with native residue C at position 19 substituted with alanine | 4295
11 | Modified Position 20: insulin B chain (9-23) peptide analogue with native residue G at position 20 substituted with alanine | 1323
12 | Modified Position 21: insulin B chain (9-23) peptide analogue with native residue E at position 21 substituted with alanine | 7900
13 | Modified Position 22: insulin B chain (9-23) peptide analogue with native residue R at position 22 substituted with alanine | 1313
14 | Modified Position 23: insulin B chain (9-23) peptide analogue with native residue G at position 23 substituted with alanine | 3228

test system: T cell clone PD12-4.29; assay: Proliferation of insulin-specific NOD T cell clone; assay type: cell-based, mouse; conditions: 50 μg/ml peptide, 72 hours
Method: as §1, §2

Row | Substance | Response (cpm)
15 | Modified Position 10: insulin B chain (9-23) peptide analogue with native residue H at position 10 substituted with alanine | 15484
16 | Modified Position 11: insulin B chain (9-23) peptide analogue with native residue L at position 11 substituted with alanine | 18416
17 | Modified Position 19: insulin B chain (9-23) peptide analogue with native residue C at position 19 substituted with alanine | 6054
18 | Modified Position 20: insulin B chain (9-23) peptide analogue with native residue G at position 20 substituted with alanine | 13736
19 | Modified Position 21: insulin B chain (9-23) peptide analogue with native residue E at position 21 substituted with alanine | 4904
20 | Modified Position 22: insulin B chain (9-23) peptide analogue with native residue R at position 22 substituted with alanine | 12635
21 | Modified Position 23: insulin B chain (9-23) peptide analogue with native residue G at position 23 substituted with alanine | 18422

test system: T cell clone PD12-4.34; assay: Proliferation of insulin-specific NOD T cell clone; assay type: cell-based, mouse; conditions: 50 μg/ml peptide, 72 hours
Method: as §1, §2

Row | Substance | Response (cpm)
22 | Modified Position 10: insulin B chain (9-23) peptide analogue with native residue H at position 10 substituted with alanine | 356
23 | Modified Position 11: insulin B chain (9-23) peptide analogue with native residue L at position 11 substituted with alanine | 190
24 | Modified Position 19: insulin B chain (9-23) peptide analogue with native residue C at position 19 substituted with alanine | 689
25 | Modified Position 20: insulin B chain (9-23) peptide analogue with native residue G at position 20 substituted with alanine | 466
26 | Modified Position 21: insulin B chain (9-23) peptide analogue with native residue E at position 21 substituted with alanine | 773
27 | Modified Position 22: insulin B chain (9-23) peptide analogue with native residue R at position 22 substituted with alanine | 1555
28 | Modified Position 23: insulin B chain (9-23) peptide analogue with native residue G at position 23 substituted with alanine | 791

test system: T cell clone PD12-2.40; assay: Proliferation of insulin-specific NOD T cell clone; assay type: cell-based, mouse; conditions: 50 μg/ml peptide, 72 hours
Method: as §1, §2
NOD T cell clones were incubated in the presence of 50 μM of either the native B chain (9-23) peptide or NBI-6024. The data in Table 3 represent the mean of triplicate sample±standard error of the mean. Within Table 3, S.I. (Stimulation Index)=proliferation (cpm) in the presence of the peptide/proliferation (cpm) in medium alone.

Row | Substance | Response (cpm)
29 | Modified Position 10: insulin B chain (9-23) peptide analogue with native residue H at position 10 substituted with alanine | 1409
30 | Modified Position 11: insulin B chain (9-23) peptide analogue with native residue L at position 11 substituted with alanine | 2594
31 | Modified Position 19: insulin B chain (9-23) peptide analogue with native residue C at position 19 substituted with alanine | 34212
32 | Modified Position 20: insulin B chain (9-23) peptide analogue with native residue G at position 20 substituted with alanine | 38685
33 | Modified Position 21: insulin B chain (9-23) peptide analogue with native residue E at position 21 substituted with alanine | 39087
34 | Modified Position 22: insulin B chain (9-23) peptide analogue with native residue R at position 22 substituted with alanine | 51722
35 | Modified Position 23: insulin B chain (9-23) peptide analogue with native residue G at position 23 substituted with alanine | 75441
